Experimental data published in patent publication US20230295293A1, “BINDING MOLECULES AGAINST FRa” (AstraZeneca AB, priority 2022, published 2023).

Columns and labels:
Type in all cases: in vivo, mouse
[1] = tested on: OVO857_CIS ("OVO0875") ovarian PDX; test: OVO857_CIS ovarian PDX model; conditions: for Tumor growth inhibition (TGI %): OVO857 PDX; for Mean Tumor volume (mm^3) ± SEM / TGI (%): OVO875 ovarian cancer PDX
Experimental: (§1) In-house in vivo patient derived xenograft (PDX) efficacy studies were conducted using 2 different ovarian PDX models, OVO857_CIS (“OVO0875”) and CTG3226. 6-8-week-old female NSG (NOD-SCID IL2Rgamma^null) as seed mice were implanted subcutaneously with tumor tissue fragments. When sufficient seed animals reached 1000-1500 mm^3, tumors were harvested, and fragments were implanted into study animals. When tumor volume reached approximately 150-250 mm^3, mice were randomly assigned into different groups (n=3 mice per group). One group received no treatment. Four groups were administered intravenously 10, 5, 2.5 and 1.25 mg/kg AB1370049-SG3932 DAR8 respectively. Two groups were administered intravenously 5 and 2.5 mg/kg FRα-DM4 ADC (“biosimilar to mirvetuximab soravtansine”, with a DAR of about 3) respectively. All dosed animals received drug intravenously as a single dose at 10 ml/kg, on day 39 for OVO857_CIS and day 46 for CTG3226 PDX models.
(§2) Tumor volumes were measured by digital caliper and the volumes of tumors were calculated using the following formula: tumor volume=[length (mm)×width (mm)^2×0.52, where the length and width are the longest and shortest diameters of the tumor, respectively. Body weights were measured twice weekly to assess tolerability of the treatments.
(§3) The growth of tumors in each experimental group was expressed as the mean tumor volume (mm^3)±SEM of the number of animals used.
(§4) Tumor growth inhibition (TGI) was calculated by comparing each treatment group to the untreated control group. Percentage inhibition was calculated from the group means using the following formula: […]
(§5) Where C is mean tumor volume of untreated control group and T is mean tumor volume of treated groups.

[2] = tested on: CTG3226 ovarian PDX; test: CTG3226 ovarian PDX model; conditions: for Tumor growth inhibition (TGI %): CTG3226 PDX; for Mean Tumor volume (mm^3) ± SEM / TGI (%): CTG3226 ovarian cancer PDX
Experimental: as §1, §2, §3, §4, §5

[3] = tested on: FRα-DM4-resistant OVCAR-3 tumors; test: FRα-DM4-resistant OVCAR3 xenograft model; conditions: FRα-DM4 resistant OVCAR3 tumors re-implanted in new host mice; two doses (Q2W) of 5 mg/kg
Experimental: To develop the OVCAR3 xenograft model, 10×10^6 cells/mouse in 50% Matrigel were inoculated subcutaneously into female 6-8-week-old female NSG (NOD-SCID IL2Rgamma^null). When tumour volume reached within the range of 200-600 mm^3, mice were dosed intravenously with FRα-DM4 ADC (“biosimilar to mirvetuximab soravtansine”, with a DAR of about 3) at 5 mg/kg, once every 2 weeks (Q2W) continuously until tumours relapsed and began to grow in size again. Among mice relapsed after 8 rounds of Q2W dosing, 4 mice were selected and re-challenged with AB1370049-SG3932 DAR8 intravenously at 5 mg/kg Q2W, receiving 2 rounds of AB1370049-SG3932 DAR8 treatment.
Separately, relapsed tumor from an additional mouse was excised and re-implanted subcutaneously into female 6-8-week-old female NSG (NOD-SCID IL2Rgamma^null) mice. […]
Tumor volumes were measured by digital caliper and the volumes of tumors were calculated using the following formula: tumor volume=[length (mm)× width (mm)^2×0.52, where the length and width are the longest and shortest diameters of the tumor, respectively. Body weights were measured twice weekly to assess tolerability of the treatments.
as §3

FRα-DM4 ADC: "biosimilar to mirvetuximab soravtansine", with a DAR of about 3
Tumor growth inhibition (TGI %) ([1]; single iv dose 2.5 mg/kg): 2%
Tumor growth inhibition (TGI %) ([1]; single iv dose 5 mg/kg): 24%
Mean Tumor volume (mm^3) ± SEM ([1]; single iv dose 2.5 mg/kg): 1882.00 ± 199.43 mm^3
TGI (%) ([1]; single iv dose 2.5 mg/kg): 2.40%
Mean Tumor volume (mm^3) ± SEM ([1]; single iv dose 5 mg/kg): 1457.15 ± 250.01 mm^3
TGI (%) ([1]; single iv dose 5 mg/kg): 24.43%
Tumor growth inhibition (TGI %) ([2]; single iv dose 2.5 mg/kg): no activity
Tumor growth inhibition (TGI %) ([2]; single iv dose 5 mg/kg): 76.5%
Mean Tumor volume (mm^3) ± SEM ([2]; single iv dose 2.5 mg/kg): 1127.58 ± 481.10 mm^3
TGI (%) ([2]; single iv dose 2.5 mg/kg): −16.66%
Mean Tumor volume (mm^3) ± SEM ([2]; single iv dose 5 mg/kg): 226.86 ± 46.03 mm^3
TGI (%) ([2]; single iv dose 5 mg/kg): 76.53%
TGI (%) [3]: still resistant to the treatment
